We go through 2 compounds from US11767307B2, “Litter for promoting pet's in-litter elimination” (SPECIALITES PET FOOD, priority 2018, dated 2023).

For one test, the system named is cats. Particulars: 21 commercial cat attractants tested; cited from earlier work.
For another test, the system named is cat elimination behavior. Nature of the test: Two-litter-box test of cat elimination behavior (deposits weight in litter). It is filed as in vivo, cats. Conditions: measured on non-soiled litters the first day of use. From the text: Twenty cats in 5 living rooms (4 cats per room) were involved in the study. The study lasted 4 days and two litter boxes containing two different products, i.e. a control cat litter (Litter 1, non-clumping clay) and an experimental cat litter (Litter 2) sprayed with 0.1% of composition A according to Example 1, were presented to the cats.
Diet was controlled for each test by measuring food intake. The temperature of the rooms was controlled. In each room, an equal proportion of males/females was respected.
Twenty cats in 5 living rooms (4 cats per room) were involved in the study. Two litter boxes containing two different products, i.e. a control cat litter (Litter 3, non-clumping clay) and an experimental cat litter (Litter 4) sprayed with 0.1% of composition B according to Example 1, were presented to the cats.

`CC(C)(CCO)SC[C@H](N)C(=O)O` [L-Felinine]: in the test on cats, the “preference by cats for urine elimination versus control” value is “significantly preferred”.
For `CC1(C)OCC(CO)O1` (centres unmarked) [composition A, 2,2-dimethyl-1,3-dioxolane-4-methanol], the “in-litter cat elimination promoting (attractant) effect” value in the test with cat elimination behavior was “in-litter cat elimination promoting (or attractant) effect”.
